We go through 53 compounds from PubChem BioAssay AID1996.

≈ marks a conversion by molar mass, not a printed value. Bounds are passed on as bounds.

For the data set the following is noted: buffer; pH 7.4; 200.0 µM.
One may read the kinetic solubility as solubility judged after dilution from a stock solution rather than from solid. Compound `COc1cc2ccccc2cc1C(=O)Nc1ccc(N2CCOCC2)cc1` yielded a kinetic solubility of 0.8 µg/mL (≈ 2.21 µM). The figure for `O=C(COC(=O)Cc1ccc(F)cc1)NC1CCCC1` is greater than 41.9 µg/mL; for `CC(=O)N(C)c1ccc(C(O)(C(F)(F)F)C(F)(F)F)cc1` it is greater than 47.3 µg/mL.

Take `CCOC(=O)c1ccc(CC2SC(N)=NC2=O)cc1` (stereo not drawn): the solubility (kinetic) stood at 36.6 µg/mL (≈ 131 µM). Compound `N/C(CN1CCSCC1)=N\OCc1c(F)cccc1Cl` returned a solubility (kinetic) of 40.4 µg/mL (≈ 127 µM). Compound `COC(=O)c1ccccc1SCc1csc(C)n1` had a solubility (kinetic) of 38.7 µg/mL (≈ 139 µM). The figure for `Cc1ccccc1C(=O)NCCNC(=O)c1ccco1` is greater than 40.8 µg/mL; for `Nc1cccnc1Oc1ccc(F)cc1` it is 28.8 µg/mL (≈ 141 µM); for `Cc1cccc2cc3ccccc3nc12` it is less than 0.4 µg/mL. In the case of `O=C(COc1cccnc1[N+](=O)[O-])c1c[nH]c2ccccc12`, the kinetic solubility stood at 4.3 µg/mL (≈ 14.5 µM). In turn, `CCCCC#Cc1cncc(C(=O)NN)c1` returned a kinetic solubility greater than 32.6 µg/mL. `Cc1ccc2c(=O)cc(C(=O)NC3CCS(=O)(=O)C3)oc2c1` (stereo not drawn): the solubility (kinetic) is greater than 48.2 µg/mL. The figure for `CC(=O)Nc1ccc(NC(=O)c2cccc3ccccc23)cc1` is 1.7 µg/mL (≈ 5.59 µM); for `Cc1ccc(NC(=O)CNC2CCCCC2)cc1Cl` it is 21.1 µg/mL (≈ 75.1 µM). Compound `Cc1cccnc1NC(=O)C(C)N1C(=O)c2ccccc2C1=O` (stereo not drawn) came in with a kinetic solubility greater than 46.4 µg/mL. With `CCOC(=O)C1CCN(C(=O)COc2ccc3c(c2)OCO3)CC1`, the solubility (kinetic) was greater than 50.3 µg/mL. `CC#CC[N+](C)(CC#CC)CC(=O)c1ccccc1.[Br-]` registered a solubility (kinetic) of 30 µg/mL. `CN(C)CCCNC(=O)c1ccccc1Oc1ccccc1` showed a kinetic solubility greater than 44.8 µg/mL.

The compound `O=C(COC(=O)Cc1ccccc1F)Nc1cccc(F)c1` returned a solubility (kinetic) greater than 45.8 µg/mL. As for `Cc1onc(-c2ccccc2)c1C(=O)N1CCCC1`, the figure is greater than 38.4 µg/mL; as for `CC(C)n1c(SCC(=O)Nc2nncs2)nnc1C1CC1`, greater than 48.7 µg/mL; as for `COc1ccccc1N1CCN(CCc2ccccc2)CC1`, 37.5 µg/mL (≈ 127 µM). As for `COc1ccc2[nH]c(C(=O)NCCCn3ccnc3)cc2c1`, the figure is greater than 44.8 µg/mL.

`c1ccc2c(c1)NCC1CCCN21` (stereo not drawn) registered a kinetic solubility of 12.7 µg/mL (≈ 72.9 µM). Compound `O=C(Nc1ccc(Cl)cc1)c1cncs1` gave a kinetic solubility greater than 35.8 µg/mL. In the case of `Cc1cc(C)c[n+](C(C)C(=O)c2ccc(Cl)cc2)c1.[Br-]` (stereo not drawn), the solubility (kinetic) is greater than 53.2 µg/mL. Regarding `C=CCOn1c(=O)c(-c2ccc(Cl)cc2)[n+]([O-])c2ccccc21`, the solubility (kinetic) came to 0.8 µg/mL (≈ 2.43 µM). As for `COc1ccc(NC(=S)NCCN2CCOCC2)cc1`, the figure is greater than 44.3 µg/mL; as for `O=[N+]([O-])c1cccc(-c2ncc3ccccn23)c1`, 19.1 µg/mL (≈ 79.8 µM). As for `Cc1ccc(NC(=O)NCCCCc2ccccc2)cc1`, the solubility (kinetic) is less than 0.3 µg/mL.

`O=C(COC(=O)C1CC2CCCC(C1)C2=O)Nc1ccc(F)c(Cl)c1` (stereo not drawn) gave a solubility (kinetic) of 54.9 µg/mL (≈ 149 µM). The figure for `COc1ccc(C(=O)Nc2cccc3ccccc23)cc1` is 1.1 µg/mL (≈ 3.97 µM). `C=CCn1c(SC(F)F)nc2scc(-c3ccco3)c2c1=O` displayed a kinetic solubility of less than 0.4 µg/mL. Compound `O=C(O)c1cccc(S(=O)(=O)N2CCN(c3ccccn3)CC2)c1` displayed a kinetic solubility greater than 52.1 µg/mL. As for `CC#CC(=O)N1CCC(CO)(CCc2ccccc2)CC1`, the figure is 41.8 µg/mL (≈ 146 µM); as for `CCOc1ccc2c(c1)C(=O)C(=O)N2CC1COc2ccccc2O1` (stereo not drawn), 1.2 µg/mL (≈ 3.54 µM); as for `O=C1CN(C(=O)COc2c(F)c(F)cc(F)c2F)c2ccccc2N1`, 44.4 µg/mL (≈ 125 µM). The compound `COc1cc2c(cc1OC)C(c1cccc(F)c1)CC(=O)N2` (stereo not drawn) yielded a kinetic solubility greater than 45.2 µg/mL. As for `COc1ccccc1C1CCN(Cc2cccc3ccccc23)CC1`, the figure is less than 0.7 µg/mL; as for `C=C(C)CN(CC)C(=O)CN1C(=O)NC2(CCCc3ccccc32)C1=O` (stereo not drawn), greater than 53.3 µg/mL; as for `CCN(Cc1ccccc1)C(=O)CN1C(=O)c2ccccc2C1=O`, greater than 48.4 µg/mL.

The compound `COc1cccc(NC(=O)CN(C)C(=O)c2cccc(S(=O)(=O)N3CC4(C)CC3CC(C)(C)C4)c2)c1` (stereo not drawn) returned a solubility (kinetic) of 2 µg/mL (≈ 3.89 µM). The figure for `O=C(O)c1cccc(S(=O)(=O)N2CCc3ccccc3C2)c1` is 26.2 µg/mL (≈ 82.6 µM); for `Cc1ccc(-c2csc(NC(=O)Cc3ccc(F)cc3)n2)o1` it is 12.5 µg/mL (≈ 39.5 µM); for `CCOC(=O)Cc1csc(NC(=O)CN2CCOCC2)n1` it is 40.1 µg/mL (≈ 128 µM). As for `CCN(CC)c1ccc(NC(=O)c2c(C)noc2C)cc1`, the figure is greater than 43.1 µg/mL; as for `O=C(O)c1cc(Cl)nc2ccccc12`, greater than 31.1 µg/mL; as for `O=C(NCCCc1ccccc1)c1cccc(Br)c1`, 19 µg/mL (≈ 59.7 µM).

`COc1cc2c(cc1OC)CN(C(=O)c1ccco1)CC2`: the solubility (kinetic) is greater than 43.1 µg/mL.

`COc1ccc(/C(C)=N/NC(=O)CNC(=O)c2cccnc2)cc1` showed a kinetic solubility greater than 49 µg/mL. For `CCc1ccc(N2CC(C(=O)OC)CC2=O)cc1` (stereo not drawn), the solubility (kinetic) was greater than 37.1 µg/mL.

With `CCn1c(=O)c(C(=O)NCc2ccc(F)cc2)c(O)c2ccccc21`, the kinetic solubility is less than 0.4 µg/mL. For the compound `COc1cc(C(=O)OCC(=O)Nc2ccc(S(=O)(=O)NC3=NCCCCC3)cc2)cc(OC)c1OC`, the kinetic solubility worked out at 73.5 µg/mL (≈ 141 µM).
